# Measurements: paper PMC8151276, “An Integrated Approach toward NanoBRET Tracers for Analysis of GPCR Ligand Engagement” (Molecules, 2021)
# How the values were obtained:
# Format in all cases: binding
# GRM4 = target: T1, GRM4 (Homo sapiens, UniProt Q14833); test: NanoBRET screen HiBiT-GRM4 in HEK293
# T1 construct: purchased Promega (in-house HiBiT-GPCR construct library, NanoBRET)
# Experimental: (§1) Each tracer candidate was screened across the entire library of HiBiT-GPCR constructs using NanoBRET as the detection modality. As depicted in Figure 4A, the specificity of interactions was evaluated through decrease in BRET due to competitive displacement of a bound tracer by excess parental compound. Each tracer was analyzed for binding to each HiBiT-GPCR fusion in the absence and in the presence of competing parental compound. Briefly, HEK293 cells were transfected with HiBiT-GPCR constructs diluted into promoterless DNA to reduce expression and maximize translocation to the cell surface. Each tracer candidate was then screened at concentrations of 1 μM and 0.1 μM across cells expressing these fusions. Cells were treated for 1.5 h with tracer either alone or in the presence of 20 μM competing parental compound (i.e., control). BRET was measured upon addition of purified LgBiT and subsequent complementation with HiBiT genetically fused to a GPCR. The specificity of interactions was assessed through a decrease in BRET signal due to competitive displacement of the bound tracer. To further gauge the robustness of these interactions, the fold response over the control (i.e., BRETtracer/BRETcontrol) was calculated. We chose a 1.5-fold response, which translates to ≥7-fold signal over noise as the minimal threshold required to score an interaction as positive. […]. Below we highlight the screening results obtained for our exemplary fluorescent tracers based on Clozapine, Amitriptyline and AZD1283.
# (§2) HiBiT-GPCR DNA constructs were diluted in 10 mM Tris pH 8 to a final concentration of 0.01 μg/μL, arrayed in 96-well plates and stored at −20 °C. For transfection, HEK293 cells were suspended in Opti-MEM (without phenol red) supplemented with 2% fetal bovine serum (Seradigm) and 100 units/mL penicillin–streptomycin (Gibco) at a final concentration of 220,000 cells/mL and dispensed into white 96-well plates at 90 μL/well. Subsequent transfections and screens were carried using an Agilent Bravo Automated Liquid Handling Platform. First, the 96-well HiBiT DNA arrays were diluted 25-fold in Opti-MEM (without serum or phenol red) to a final concentration of 0.0004 μg/μL and 20 μL of the diluted DNAs were transferred into new 96-well plates. Next, promoterless carrier DNA (1 μg/μL) was diluted 25-fold (0.04 μg/μL) and then dispensed into the diluted arrays at 20 μL/well. Following brief mixing, Viafect transfection reagent (Promega) diluted 16-fold into Opti-MEM was dispensed into the plates at 40 μL/well. After mixing by pipetting, plates were incubated for 10 min on the pipetting station deck. The DNA-transfection reagent complexes were then added to plates containing cells. To facilitate the screen, 10 μL of DNA-transfection reagent complexes were added in duplicates to the top 4 and bottom 4 rows, resulting in two identical 48-well arrays per plate. Plates with transfected cells were incubated for 18–20 h at 37 °C/5% CO2. A screen of each tracer across the entire library using two different concentrations requires duplicate plates of transfected cells. Depending on the number of tracers being screened, transfections can be scaled up using the same ratios. The next day, for each tracer, four 20× screening solutions in tracer dilution buffer (Promega) were prepared: two duplicates at final concentration of 20 μM and two duplicates at a final concentration of 2 μM. A competing unmodified compound was added to one of each duplicate at a final concentration of 400 μM. The four resulting solutions were diluted 4-fold in Opti-MEM without serum or phenol red to generate 5× solutions (5 µM and 0.5 µM tracer +/− 100 μM competing compound). To screen the library, a BioTek MultiFlo FX liquid dispenser was used to dispense 22.5 µL of tracer solution to the top 4 rows and 22.5 µL tracer + competing compound solution to the 4 bottom rows. Plates were briefly mixed on an orbital shaker and incubated for 1.5 h at room temperature. […]
# CCR3 = target: T2, CCR3 (Homo sapiens, UniProt P51677); test: NanoBRET screen HiBiT-CCR3 in HEK293
# T2 construct: purchased Promega (in-house HiBiT-GPCR construct library, NanoBRET)
# T2 sequence (P51677 1-355): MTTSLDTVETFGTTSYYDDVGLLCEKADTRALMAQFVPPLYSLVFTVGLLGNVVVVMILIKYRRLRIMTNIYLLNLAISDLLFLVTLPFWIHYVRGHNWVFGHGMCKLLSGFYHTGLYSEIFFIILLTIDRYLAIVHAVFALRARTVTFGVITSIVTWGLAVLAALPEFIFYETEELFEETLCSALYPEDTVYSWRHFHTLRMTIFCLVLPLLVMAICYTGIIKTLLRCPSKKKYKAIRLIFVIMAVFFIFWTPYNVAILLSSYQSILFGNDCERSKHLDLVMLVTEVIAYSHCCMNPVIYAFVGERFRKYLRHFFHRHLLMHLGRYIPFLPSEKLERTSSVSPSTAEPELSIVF
# Experimental: as §1, §2
# OXTR = target: T3, OXTR (Homo sapiens, UniProt P30559); test: NanoBRET screen HiBiT-OXTR in HEK293
# T3 construct: purchased Promega (in-house HiBiT-GPCR construct library, NanoBRET)
# T3 sequence (P30559 1-389): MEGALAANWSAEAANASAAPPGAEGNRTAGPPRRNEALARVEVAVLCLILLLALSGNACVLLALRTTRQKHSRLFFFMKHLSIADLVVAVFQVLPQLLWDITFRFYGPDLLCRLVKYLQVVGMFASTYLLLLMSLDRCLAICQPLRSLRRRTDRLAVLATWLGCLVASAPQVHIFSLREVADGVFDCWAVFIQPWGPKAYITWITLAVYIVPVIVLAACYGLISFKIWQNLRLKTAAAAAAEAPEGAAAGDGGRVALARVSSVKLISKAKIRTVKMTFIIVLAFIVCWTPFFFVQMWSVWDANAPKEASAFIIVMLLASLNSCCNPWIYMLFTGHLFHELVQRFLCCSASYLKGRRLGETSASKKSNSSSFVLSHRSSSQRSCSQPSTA
# Experimental: as §1, §2
# BRS3 = target: T4, BRS3 (Homo sapiens, UniProt P32247); test: NanoBRET screen HiBiT-BRS3 in HEK293
# T4 construct: purchased Promega (in-house HiBiT-GPCR construct library, NanoBRET)
# T4 sequence (P32247 1-399): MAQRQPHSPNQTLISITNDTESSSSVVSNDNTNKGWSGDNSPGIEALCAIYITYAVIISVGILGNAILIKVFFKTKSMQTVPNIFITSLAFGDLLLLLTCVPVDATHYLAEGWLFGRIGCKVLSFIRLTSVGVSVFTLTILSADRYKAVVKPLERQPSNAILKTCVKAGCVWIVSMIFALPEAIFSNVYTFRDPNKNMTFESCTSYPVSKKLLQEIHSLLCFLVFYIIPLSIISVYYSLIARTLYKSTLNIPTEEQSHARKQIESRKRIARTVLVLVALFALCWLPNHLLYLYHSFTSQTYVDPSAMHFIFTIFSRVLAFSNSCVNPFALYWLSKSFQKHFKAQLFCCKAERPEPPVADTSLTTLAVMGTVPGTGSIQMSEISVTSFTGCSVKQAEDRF
# Experimental: as §1, §2
# SSTR4 = target: T5, SSTR4 (Homo sapiens, UniProt P31391); test: NanoBRET screen HiBiT-SSTR4 in HEK293
# T5 construct: purchased Promega (in-house HiBiT-GPCR construct library, NanoBRET)
# T5 sequence (P31391 whole entry): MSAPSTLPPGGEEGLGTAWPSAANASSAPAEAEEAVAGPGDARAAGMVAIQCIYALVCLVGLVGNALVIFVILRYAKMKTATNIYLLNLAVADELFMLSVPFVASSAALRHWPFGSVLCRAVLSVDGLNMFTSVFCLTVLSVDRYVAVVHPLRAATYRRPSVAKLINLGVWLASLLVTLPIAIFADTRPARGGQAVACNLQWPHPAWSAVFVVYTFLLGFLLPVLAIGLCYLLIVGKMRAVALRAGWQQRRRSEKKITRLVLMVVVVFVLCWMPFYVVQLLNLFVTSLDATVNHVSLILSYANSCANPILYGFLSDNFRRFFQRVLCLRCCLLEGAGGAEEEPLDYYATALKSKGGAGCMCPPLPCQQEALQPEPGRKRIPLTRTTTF
# Experimental: as §1, §2
# [1] = tracer at 1μM, listed as amitriptyline-b-2-NB590
# T1 sequence (Q14833 33-912): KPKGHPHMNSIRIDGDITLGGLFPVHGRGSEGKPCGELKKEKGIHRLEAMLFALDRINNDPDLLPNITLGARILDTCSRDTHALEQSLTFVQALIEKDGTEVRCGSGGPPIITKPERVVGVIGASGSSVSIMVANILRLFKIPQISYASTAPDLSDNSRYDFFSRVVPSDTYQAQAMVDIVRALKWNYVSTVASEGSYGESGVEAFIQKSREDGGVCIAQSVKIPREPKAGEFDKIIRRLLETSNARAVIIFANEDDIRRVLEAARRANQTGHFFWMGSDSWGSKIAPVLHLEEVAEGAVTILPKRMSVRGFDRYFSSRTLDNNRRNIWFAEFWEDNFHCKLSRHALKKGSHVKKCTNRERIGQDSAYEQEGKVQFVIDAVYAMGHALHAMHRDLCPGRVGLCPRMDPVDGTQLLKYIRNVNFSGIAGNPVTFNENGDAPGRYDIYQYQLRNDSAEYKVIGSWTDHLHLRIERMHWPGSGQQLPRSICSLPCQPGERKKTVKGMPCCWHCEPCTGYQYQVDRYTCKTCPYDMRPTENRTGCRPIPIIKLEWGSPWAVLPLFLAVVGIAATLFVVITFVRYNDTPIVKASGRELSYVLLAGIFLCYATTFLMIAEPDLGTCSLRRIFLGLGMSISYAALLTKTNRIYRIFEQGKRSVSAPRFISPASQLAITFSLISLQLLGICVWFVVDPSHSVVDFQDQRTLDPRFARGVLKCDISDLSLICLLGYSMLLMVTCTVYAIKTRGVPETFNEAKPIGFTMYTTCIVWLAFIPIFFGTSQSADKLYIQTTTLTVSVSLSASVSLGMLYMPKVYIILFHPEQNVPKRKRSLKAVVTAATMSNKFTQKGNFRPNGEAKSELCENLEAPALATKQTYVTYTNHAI
Structure (SMILES),"NanoBRET Fold Response (GRM4; GRM4, tracer 0.1μM)","NanoBRET Fold Response (GRM4; GRM4, tracer 1μM)","NanoBRET Fold Response (CCR3; CCR3, tracer 0.1μM)","NanoBRET Fold Response (CCR3; CCR3, tracer 1μM)","NanoBRET Fold Response (OXTR; OXTR, tracer 0.1μM)","NanoBRET Fold Response (BRS3; BRS3, tracer 0.1μM)","NanoBRET Fold Response (BRS3; BRS3, tracer 1μM)","NanoBRET Fold Response (SSTR4; SSTR4, tracer 0.1μM)","NanoBRET Fold Response (SSTR4; SSTR4, tracer 1μM)","NanoBRET Fold Response (OXTR; OXTR, tracer 1μM)",also measured
COc1ccccc1N1CCN(CCCCN2C(=O)c3ccc(CNC(=O)CCOCCOCCOCCOCCNC(=O)CCc4ccc5n4[B-](F)(F)[N+]4=C(c6ccc[nH]6)C=CC4=C5)cc3C2=O)CC1 [NAN-190-2-NB590],0.98,0.97,1.08,1.11,0.96,1.04,0.97,1.02,1.00,,
CC(C)N(CC[C@H](c1ccccc1)c1cc(CCNC(=O)CCOCCOCCOCCOCCNC(=O)CCc2ccc3n2[B-](F)(F)[N+]2=C(c4ccc[nH]4)C=CC2=C3)ccc1O)C(C)C [Tolterodine-2-NB590],0.97,1.14,1.63,1.01,0.97,1.02,1.04,0.97,1.14,0.94,
N#CN=C(NCCCOc1cccc(CN2CCCCC2)c1)NCCNC(=O)CCOCCOCCOCCOCCNC(=O)CCc1ccc2n1[B-](F)(F)[N+]1=C(c3ccc[nH]3)C=CC1=C2 [Aminopotentidine-2-NB590],1.02,1.01,0.95,0.89,1.06,1.02,1.00,1.08,1.00,1.04,
CCOC(=O)c1cc(C#N)c(N2CCC(C(=O)NS(=O)(=O)Cc3ccccc3/C=C/C(=O)NCCNC(=O)CCc3ccc4n3[B-](F)(F)[N+]3=C(c5ccc[nH]5)C=CC3=C4)CC2)nc1C [AZD1283-1-NB590],,,,,,,,,,,"NanoBRET Fold Response (GRM4; GRM4, 0.1μM): 1.06; NanoBRET Fold Response (GRM4; GRM4, 1μM): 1.07; NanoBRET Fold Response (CCR3; CCR3, 0.1μM): 0.96; NanoBRET Fold Response (CCR3; CCR3, 1μM): 1.02; NanoBRET Fold Response (OXTR; OXTR, 0.1μM): 1.07; NanoBRET Fold Response (OXTR; OXTR, 1μM): 1.07; NanoBRET Fold Response (BRS3; BRS3, 0.1μM): 1.10; NanoBRET Fold Response (BRS3; BRS3, 1μM): 1.02; NanoBRET Fold Response (SSTR4; SSTR4, 0.1μM): 1.10; NanoBRET Fold Response (SSTR4; SSTR4, 1μM): 1.07"
CN(C)CCC=C1c2ccccc2CCc2ccc(C(=O)NCCNC(=O)CCOCCOCCOCCOCCNC(=O)CCc3ccc4n3[B-](F)(F)[N+]3=C(c5ccc[nH]5)C=CC3=C4)cc21 [Amitriptyline-b-2-NB590],0.96,0.95,,,,,,,,,"NanoBRET Fold Response (CCR3; tracer at 0.1μM): 0.90; NanoBRET Fold Response (CCR3; [1]): 1.27; NanoBRET Fold Response (OXTR; tracer at 0.1μM, listed as amitriptyline-b-2-NB590): 1.08; NanoBRET Fold Response (OXTR; [1]): 1.01; NanoBRET Fold Response (BRS3; tracer at 0.1μM): 0.92; NanoBRET Fold Response (BRS3; [1]): 1.07; NanoBRET Fold Response (SSTR4; tracer at 0.1μM): 1.16; NanoBRET Fold Response (SSTR4; tracer at 1μM): 0.99"
O=C(CCc1ccc2n1[B-](F)(F)[N+]1=C(c3ccc[nH]3)C=CC1=C2)NCCOCCOCCNC(=O)OCCOCCN1CCN(C2=Nc3ccccc3Sc3ccccc32)CC1 [Quetiapine-a-2-NB590],0.99,0.92,1.11,0.98,1.10,0.96,0.98,0.99,0.83,0.82,
Cc1cc2c(s1)Nc1ccccc1N=C2N1CCN(CCCNC(=O)CCOCCOCCOCCOCCNC(=O)CCc2ccc3n2[B-](F)(F)[N+]2=C(c4ccc[nH]4)C=CC2=C3)CC1 [Olanzapine-a-2-NB590],0.99,0.93,1.19,1.22,1.00,1.01,1.05,0.98,1.04,0.96,
CN1CCN(C2=Nc3cc(Cl)ccc3Nc3ccc(CNC(=O)CCOCCOCCOCCOCCNC(=O)CCc4ccc5n4[B-](F)(F)[N+]4=C(c6ccc[nH]6)C=CC4=C5)cc32)CC1 [Clozapine-b-2-NB590],,,,,,,,,,,"NanoBRET Fold Response (GRM4; GRM4, 0.1μM tracer): 1.05; NanoBRET Fold Response (GRM4; GRM4, 1μM tracer): 1.03; NanoBRET Fold Response (CCR3; CCR3, 0.1μM tracer): 0.98; NanoBRET Fold Response (CCR3; CCR3, 1μM tracer): 1.00; NanoBRET Fold Response (OXTR; OXTR, 0.1μM tracer): 1.05; NanoBRET Fold Response (OXTR; OXTR, 1μM tracer): 1.03; NanoBRET Fold Response (BRS3; BRS3, 0.1μM tracer): 1.01; NanoBRET Fold Response (BRS3; BRS3, 1μM tracer): 1.02; NanoBRET Fold Response (SSTR4; SSTR4, 0.1μM tracer): 0.97; NanoBRET Fold Response (SSTR4; SSTR4, 1μM tracer): 1.02"
COc1ccc2c(n1)c(CCNC(C)=O)cn2CCNC(=O)CCc1ccc2n1[B-](F)(F)[N+]1=C(c3ccc[nH]3)C=CC1=C2 [Azamelatonin-1-NB590],,,,,,,,,,,NanoBRET Fold Response (GRM4; 0.1μM tracer): 1.09; NanoBRET Fold Response (GRM4; 1μM tracer): 0.78; NanoBRET Fold Response (CCR3; 0.1μM tracer): 1.27; NanoBRET Fold Response (CCR3; 1μM tracer): 0.96; NanoBRET Fold Response (OXTR; 0.1μM tracer): 1.11; NanoBRET Fold Response (OXTR; 1μM tracer): 0.94; NanoBRET Fold Response (BRS3; 0.1μM tracer): 0.95; NanoBRET Fold Response (BRS3; 1μM tracer): 0.95; NanoBRET Fold Response (SSTR4; 0.1μM tracer): 0.93; NanoBRET Fold Response (SSTR4; 1μM tracer): 1.01
